Results from patent US20130177921A1, “Detection of Damage to DNA” (priority 2010, published 2013).

Tests used:
[1] = system: DT40 cells
Procedure: Briefly, cells growing in culture were first labeled for 10 min in medium with 100 μM iododeoxyurine (IdU), and then centrifuged to remove the medium containing IdU. […] After exposure to the second halogenated nucleotide, the cells were harvested by centrifugation and resuspended in ice cold PBS at about 200 cells/μl.
For the detection of IdU and CIdU within the DNA fiber spreads, the slides were treated with 2.5 M HCl for 30 min, washed several times in PBS, and blocked in 3% bovine serum albumin in PBS for 60 min. […]
To determine the number of nt that had been replicated (i.e., incorporated IdU or CIdU) in normal culture conditions, the total amount of fluorescence from both IdU and CIdU was measured. The number of AP sites co-localized in areas where DNA had replicated was assessed using the co-localization function provided by Image J. In this series of experiments, AP sites were marked by blue signal and those that co-localized with areas undergoing replication were counted using the particle counter function of Image J. To determine the amount of replicating DNA expressed in nt, the total amount of red and green fluorescence (IdU and CIdU, respectively) was determined and then divided by fluorescence intensity per nt, as described above.
To determine the number of AP sites per unit length of DNA in areas undergoing replication, cells were first pulsed with IdU (a nucleotide precursor), and then pulsed with CIdU (a different precursor). […] Fluorescently labeled AP sites were readily detected and could be quantified with respect to the fluorescent tracks of IdU and CIdU labeled DNA (see Materials and Methods).

[2] = system: DT40 cells; settings: H2O2-treated versus untreated cells
Procedure: (§1) Avian DT40 cells (38, 39) were grown at 39.5° C., the normal Avian body temperature, in a humidified atmosphere supplemented with 5% CO2 as a suspension in RPMI-1640 (Invitrogen) supplemented with 10% fetal bovine serum (Sigma), 1% chicken serum (Sigma and Invitrogen), and containing 100 μg/ml penicillin and 100 μg/ml streptomycin (Invitrogen).

[3] = system: DT40 cells; settings: cells exposed to 20 μM H2O2
Procedure: as §1
DNA was isolated from DT40 cells in normal culture conditions or DT40 cells experiencing oxidative stress and processed for slot-blot analysis as described previously (2).

[4] = system: MCF7 human breast cancer cells; assay: Dox-induced DNA damage (AP sites) in MCF7 cells used as surrogate CTCs, extended DNA fibers; type: cell-based
From the text: MCF7 cells were exposed to Doxorubicin (Dox) in culture (1) or exposed to Dox in culture and then processed using the Mag Sweeper Oft MCF7 cells processed identically but not treated with Dox served as controls in each case. Cells were next were recovered, put onto slides and lysed and DNA extended
MCF7 cells were exposed to Doxorubicin (Dox) alone (first three bars) or exposed to Dox first then isolated using Mag Sweeper (fourth, filth, sixth bars). Thereafter. DNA was extended on slides following cell lysis and DNA and sites of DNA damage were stained with fluorescent probes Images of extended fluorescently-labeled DNA fibers were obtained and DNA content and DNA damage site number were determined by computer analysis of the images. Results of the analysis of DNA damage in the bars is reported with the ordinate of the graph scaled as the number of DNA damage sites, in this case AP sites, per 10^6 nucleotides in length
In an initial study, MCF7 human breast cancer cells, a line of human breast adenocarcinoma, were used to simulated CTCs. The “simulated CTCs” were exposed to 0, 0.33, and 0.66 μM doxorubicin (Dox). Doxorubicin is a principal chemotherapeutic agent for breast cancer and the doses of the drug were chosen to approximate dose levels achieved in patients. In one experiment, untreated cells and cells treated with Dox were harvested 16 hours after starting sham or drug treatment and slides of extended DNA were prepared from the untreated and treated cells. The amount of DNA damage for each treatment condition was then determined. This experiment was designed to test whether drug exposure of the cells alone increased DNA damage in the form of abasic (AP) sites (FIG. 13, upper path). Next, untreated cells and cells treated with Dox were collected 16 hours after starting sham or drug treatment. The cells were subjected to a CTC isolation technique referred to as the ‘Mag Sweeper’ process (15) and the recovered cells' DNA harvested and placed on slides to extend the DNA and then the DNA analyzed for damage as described herein ([…], lower path).

## OO [H2O2, hydrogen peroxide]
[1]; replicating DNA labeled after H2O2 exposure (20 μM, FIG. 3)
  number of AP sites per 10^6 nt in CIdU tracks: 20.8 per 10^6 nt
[1]; replicating DNA labeled before H2O2 exposure (20 μM, FIG. 3)
  number of AP sites per 10^6 nt in IdU tracks: 12.9 per 10^6 nt
[1]; replicating regions versus global DNA, H2O2-exposed cells
  increase of AP sites per 10^6 nt in replicating regions exposed to H2O2: 50 to 150%
[2]
  clustering of AP sites: more common
[3]
  number of AP sites per 10^6 nt, slot blot analysis: 7.7 AP sites per 10^6 nt

## COc1cccc2c1C(=O)c1c(O)c3c(c(O)c1C2=O)C[C@@](O)(C(=O)CO)C[C@@H]3O[C@H]1C[C@H](N)[C@H](O)[C@H](C)O1 [Dox, Doxorubicin]
[4]; 0.33 and 0.66 μM Dox, 16 hours, then cells processed with Mag Sweeper, versus untreated cells
  DNA damage (AP sites) after Mag Sweeper isolation: AP sites increased after Dox treatment
[4]; 0.33 and 0.66 μM Dox, harvested 16 hours after start, Dox alone, versus untreated cells
  DNA damage (level of AP sites): notably increased DNA damage
[4]; 0.66 versus 0.33 μM Dox, with and without Mag Sweeper
  dose dependence of DNA damage: more damage detected with the higher dose
